Data from PubChem BioAssay (NCI).
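Values below derive from 48-hour exposures of cells grown in 96-well plates, with endpoints linearly interpolated between the two concentrations bracketing the appropriate inhibition level. At the GI50, growth is halved. At the TGI there is no net growth.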

Columns and labels:
Test in all cases: NCI-60 cell line screen, 48 h
M14 melanoma = test system: M14 melanoma
U251 CNS = test system: U251 CNS
UACC-62 melanoma = test system: UACC-62 melanoma
A498 renal = test system: A498 renal
OVCAR-5 ovarian = test system: OVCAR-5 ovarian
RPMI-8226 leukemia = test system: RPMI-8226 leukemia
COLO 205 colon = test system: COLO 205 colon
KM12 colon = test system: KM12 colon
NCI/ADR-RES ovarian = test system: NCI/ADR-RES ovarian
UO-31 renal = test system: UO-31 renal

Structure (SMILES) | TGI (M14 melanoma) [µM] | TGI (U251 CNS) [µM] | TGI (UACC-62 melanoma) [µM] | TGI (A498 renal) [µM] | TGI (OVCAR-5 ovarian) [µM] | TGI (RPMI-8226 leukemia) [µM] | TGI (COLO 205 colon) [µM] | TGI (KM12 colon) [µM] | TGI (NCI/ADR-RES ovarian) [µM] | TGI (UO-31 renal) [µM] | GI50 (RPMI-8226 leukemia) [µM] | GI50 (UO-31 renal) [µM] | GI50 (UACC-62 melanoma) [µM] | GI50 (A498 renal) [µM] | GI50 (OVCAR-5 ovarian) [µM] | GI50 (COLO 205 colon) [µM] | GI50 (KM12 colon) [µM] | GI50 (NCI/ADR-RES ovarian) [µM]
CN(C)CC(C)(C)CN1c2ccccc2Sc2ccccc21 | 22.4 | 26.4 | 28.2 | 26.4 | 29.9 | 35.8 | 24.9 | 25.8 | 26.3 | – | – | – | – | – | – | – | – | –
Nc1ccc(C2SCC(=O)N2NS(=O)(=O)c2cccc(C(=O)O)c2)cc1 (configuration not stated) | > 100 | > 100 | > 100 | > 100 | > 100 | > 100 | > 100 | > 100 | – | > 100 | – | – | – | – | – | – | – | –
C/C(CCN(C)C)=N\OC(=O)c1ccccc1 | > 100 | > 100 | > 100 | > 100 | > 100 | > 100 | > 100 | > 100 | – | > 100 | – | – | – | – | – | – | – | –
Cn1c(=O)n(C2(C)CSC2)c2ccccc21 | > 100 | > 100 | > 100 | > 100 | > 100 | > 100 | > 100 | > 100 | – | > 100 | – | – | – | – | – | – | – | –
C[C@@H](c1ccccc1)N1CO[C@@]2(C#Cc3ccc4c(c3)OCO4)CCC[C@@H]12 | 31.2 | 28.1 | > 100 | – | 32 | 38 | 31.4 | 34.7 | 30.8 | 28.1 | – | – | – | – | – | – | – | –
COc1ccc(/C=C/C(=O)CCN2CCN(CCC(=O)/C=C/c3ccc(OC)cc3)CC2)cc1 | 32.5 | 26.6 | 27.2 | 16.2 | 35.3 | – | 13.4 | 23 | 96 | 27.7 | – | – | – | – | – | – | – | –
CC(C)[Si](Oc1ccc(CC2N(C(=O)c3ccc([N+](=O)[O-])cc3)C(CCc3ccccc3)CC2(C)C=O)cc1)(C(C)C)C(C)C (configuration not stated) | – | > 100 | > 100 | > 100 | > 100 | > 100 | > 100 | – | – | > 100 | – | – | – | – | – | – | – | –
O=C(Nc1ccc(F)cc1)c1cc2c(cc1Cl)Sc1nccn1S2(=O)=O | > 100 | 45.2 | – | 74 | > 100 | – | > 100 | > 100 | > 100 | – | – | – | – | – | – | – | – | –
COc1ccc(Nc2cc(=O)[nH]c(=O)[nH]2)cc1 | > 100 | > 100 | – | > 100 | > 100 | > 100 | > 100 | > 100 | > 100 | > 100 | – | – | – | – | – | – | – | –
CC(C)(C)CI | 71.3 | 66.4 | > 100 | > 100 | > 100 | – | 47 | 64.6 | – | > 10 | – | – | – | – | – | – | – | –
Cc1cc(N=Cc2c(CO)cnc(C)c2O)c(N=Cc2c(CO)cnc(C)c2O)cc1C | > 100 | > 100 | > 100 | > 100 | > 100 | > 100 | > 100 | > 100 | > 100 | – | 26.1 | – | – | – | – | – | – | –
Cn1c(=S)[nH]c(N)c(Cc2ccccc2)c1=O | > 100 | > 100 | > 100 | > 100 | > 100 | > 100 | > 100 | > 100 | > 100 | – | – | – | – | – | – | – | – | –
CN(/N=C/C=N/N(C)C1=NCCN1)C1=NCCN1 | > 100 | > 100 | > 100 | – | > 100 | – | > 100 | > 100 | > 100 | > 100 | – | – | – | – | – | – | – | –
CC(=O)Oc1cc(-c2oc3cc(OC(C)=O)c(C4OC(CO)C(O)C(O)C4O)c(OC(C)=O)c3c(=O)c2O)c(OC(C)=O)cc1O (configuration not stated) | > 100 | > 100 | > 100 | – | > 100 | > 100 | > 100 | > 100 | > 100 | > 100 | – | – | – | – | – | – | – | –
OC(Cc1cc(CC(O)(C(F)(F)F)C(F)(F)F)nc(CC(O)(C(F)(F)F)C(F)(F)F)c1)(C(F)(F)F)C(F)(F)F | 8.25 | 5.32 | 1.6 | 3.22 | > 10 | > 10 | 2.14 | 2.42 | 6.32 | – | – | – | – | – | – | – | – | –
CC(C)CC1N=C(OCc2ccccc2)OC1=O (configuration not stated) | > 100 | > 100 | – | > 100 | > 100 | > 100 | – | > 100 | > 100 | > 100 | – | – | – | – | – | – | – | –
CCCCCCCCCCCCCCCCCCOc1ccccc1COP(=O)(O)OOCC[N+](C)(C)C | – | – | 2.82 | 17.2 | 6.86 | – | 2.57 | 2.12 | 20.6 | 6.76 | – | 1.27 | 0.901 | 6.88 | 1.51 | 1.04 | 1.01 | 6.59

Structure (SMILES) | TGI (M14 melanoma) [µM] | TGI (U251 CNS) [µM] | TGI (UACC-62 melanoma) [µM] | TGI (A498 renal) [µM] | TGI (OVCAR-5 ovarian) [µM] | TGI (RPMI-8226 leukemia) [µM] | TGI (COLO 205 colon) [µM] | TGI (KM12 colon) [µM] | TGI (NCI/ADR-RES ovarian) [µM] | TGI (UO-31 renal) [µM] | GI50 (RPMI-8226 leukemia) [µM] | GI50 (UO-31 renal) [µM] | GI50 (UACC-62 melanoma) [µM] | GI50 (A498 renal) [µM] | GI50 (OVCAR-5 ovarian) [µM] | GI50 (COLO 205 colon) [µM] | GI50 (KM12 colon) [µM] | GI50 (NCI/ADR-RES ovarian) [µM]
CC1(C)[C@H]2Cc3cc4nc5ccccn5c4cc3[C@@H]1C2 | 38.2 | 34.2 | 29.9 | – | 30.8 | 69.3 | 34.7 | 36.7 | 36.7 | 26.9 | – | – | – | – | – | – | – | –
O=C1N[C@H](C(=O)O)[C@@H](c2ccc(OCc3ccccc3)cc2)O1 | > 100 | > 100 | > 100 | – | > 100 | > 100 | > 100 | > 100 | 65.3 | > 100 | – | – | – | – | – | – | – | –
CC#CC#C/C=C1\C=CC2(OC=CC2O)O1 (configuration not stated) | > 23.3 | > 23.3 | > 23.3 | – | 11.8 | > 23.3 | 6.83 | 7.3 | – | > 23.3 | – | – | – | – | – | – | – | –
Cc1cc(=O)oc2c(C)c3oc(CBr)cc3cc12 | 34.8 | 47.1 | 33.9 | – | 36.8 | 42.6 | 34.2 | 42.1 | 58.1 | 30.3 | – | – | – | – | – | – | – | –
CN1CCc2c(sc3ncn(Nc4ccc(F)cc4)c(=N)c23)C1 | > 100 | > 100 | > 100 | > 100 | > 100 | > 100 | – | > 100 | > 100 | – | – | – | – | – | – | – | – | –
CC/C=C\C=C/C(=O)N/C=C/CCC | > 100 | > 100 | > 100 | > 100 | > 100 | > 100 | – | > 100 | > 100 | > 100 | – | – | – | – | – | – | – | –
CC(C)C(CCOS(=O)(=O)O)CCC(C)[C@H]1[C@@H](O)C(O)C2[C@]3(O)C[C@@H](O)C4(O)C[C@@H](O)CC[C@]4(C)C3CC[C@@]21C (some centres not stated) | > 100 | > 100 | > 100 | – | – | > 100 | > 100 | > 100 | – | > 100 | – | – | – | – | – | – | – | –
O=C(O)c1ccc(Nc2cnc3cc(C(F)(F)F)ccc3n2)cc1 | – | > 100 | 53.6 | – | > 100 | > 100 | > 100 | > 100 | > 100 | > 100 | – | – | – | – | – | – | – | –
O=C1CN(c2ccccc2)C(=O)CN1NCNN1CC(=O)N(c2ccccc2)CC1=O | > 100 | > 100 | > 100 | > 100 | > 100 | > 100 | > 100 | > 100 | – | > 100 | – | – | – | – | – | – | – | –
Cc1cccc(N=N/C(=N\NC(=O)c2cc(Cl)ccc2O)c2ccc(N(CCC#N)CCC#N)cc2C)c1 | > 100 | > 100 | 84.6 | – | > 100 | 44.9 | 29.3 | 87.7 | > 100 | 82.9 | – | – | – | – | – | – | – | –
O=C(CC(=O)N1N=C(N(c2ccccc2)c2ccccc2)CC1c1ccccc1)Nc1cccc(Cl)c1 (configuration not stated) | > 100 | > 100 | > 100 | – | > 100 | > 100 | > 100 | > 100 | > 100 | > 100 | – | – | – | – | – | – | – | –
[O-][N+]1=C2CCC/C(=N/O)C2(O)C2CCCCC21N1CCOCC1 (configuration not stated) | > 100 | > 100 | > 100 | – | > 100 | – | > 100 | > 100 | > 100 | > 100 | – | – | – | – | – | – | – | –
COc1cccc(/C=N/[N-]C(N)=O)c1[O-].[Co+2].[OH3+].c1ccncc1 | > 100 | > 100 | > 100 | – | > 100 | > 100 | > 100 | > 100 | – | > 100 | – | – | – | – | – | – | – | –
C=C(C)CCC(O)[C@](C)(O)[C@H]1[C@H](O)C[C@@]2(C)[C@@H]3CCc4c(cc(OC5OC(CO)C(O)C(O)C5O)c(O)c4C)C3(C)C(=O)C[C@]12C (some centres not stated) | > 100 | > 100 | > 100 | > 100 | > 100 | – | > 100 | > 100 | > 100 | > 100 | – | – | – | – | – | – | – | –
CN(C)NC1=NS(=O)(=O)c2cc3c(=O)n(C)[nH]c3cc2S1 | > 10 | > 10 | – | > 10 | > 10 | > 10 | > 10 | > 10 | > 10 | > 10 | – | – | – | – | – | – | – | –
O=C1c2ccccc2C(=O)N1NC1=NCCN1 | > 100 | > 100 | > 100 | > 100 | > 100 | > 100 | > 100 | > 100 | > 100 | – | – | – | – | – | – | – | – | –
CCCC(C(=O)OC)C1N=C(NC#N)N(Cc2ccccc2)C1=O (configuration not stated) | > 100 | > 100 | > 100 | – | > 100 | > 100 | > 100 | > 100 | – | > 100 | – | – | – | – | – | – | – | –
